From ChEMBL document CHEMBL3739370, “Synthesis and evaluation of amide, sulfonamide and urea benzisoxazole derivatives as potential atypical antipsychotics” (Medchemcomm, 2015) come the findings set out here.

For series [1], the system named is Mus musculus. The series is described as follows: Selectivity ratio of ED50 for po dosed mouse assessed as catalepsy to ED50 for po dosed mouse assessed as reversal of apomorphine-induced climbing activity.
Series [2] concerns the target T1, 5-hydroxytryptamine receptor 1A (Homo sapiens) (UniProt P08908).
T1 sequence (whole entry): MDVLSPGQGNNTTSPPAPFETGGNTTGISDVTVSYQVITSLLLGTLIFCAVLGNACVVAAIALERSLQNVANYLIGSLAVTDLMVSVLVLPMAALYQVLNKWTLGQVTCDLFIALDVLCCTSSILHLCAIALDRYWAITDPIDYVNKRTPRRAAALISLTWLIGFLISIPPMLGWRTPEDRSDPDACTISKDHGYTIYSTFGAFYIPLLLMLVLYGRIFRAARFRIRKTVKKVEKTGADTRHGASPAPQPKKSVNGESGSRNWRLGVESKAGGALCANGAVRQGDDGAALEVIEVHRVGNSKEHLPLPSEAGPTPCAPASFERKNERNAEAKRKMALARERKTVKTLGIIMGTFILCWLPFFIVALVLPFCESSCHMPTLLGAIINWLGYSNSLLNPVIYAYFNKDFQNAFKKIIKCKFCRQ
The series is described as follows: Agonist activity at […] receptor (unknown origin) at 10 uM relative to 5-HT.

For series [3], the target named is D(2) dopamine receptor (Homo sapiens) (UniProt P14416). The series is described as follows: Antagonist activity at dopamine D2 receptor (unknown origin) at 10 uM.
The target of series [4] is 5-hydroxytryptamine receptor 2A (Rattus norvegicus, UniProt P14842). The series is described as follows: Displacement of [3H]ketanserin from 5HT2A receptor in rat brain cortex. Format: tissue-based. For orientation: Loss of bound radioactivity is the signal in a displacement assay; it reports binding, not function.
For series [5], the system named is Mus musculus. The series is described as follows: Antipsychotic activity in po dosed mouse assessed as reversal of apomorphine-induced climbing activity. Format: functional.
Series [6] addresses D(2) dopamine receptor (Rattus norvegicus, UniProt P61169). The series is described as follows: Displacement of [3H]spiperone from dopamine D2 receptor in rat striatum.
For series [7], the target named is Voltage-gated inwardly rectifying potassium channel KCNH2 (Homo sapiens, UniProt Q12809). The series is described as follows: Inhibition of human ERG.
In series [8] the test system is Mus musculus. The series is described as follows: Toxicity in po dosed mouse assessed as catalepsy. The series is classed as organism-based. The settings on record: in vivo.
Series [9] deals with 5-hydroxytryptamine receptor 2A (Homo sapiens) (UniProt P28223). The series is described as follows: Antagonist activity at […] receptor (unknown origin) at 10 uM.
In series [10] the target is D(3) dopamine receptor (Homo sapiens) (UniProt P35462). The series is described as follows: Agonist activity at dopamine D3 receptor (unknown origin) at 10 uM relative to dopamine.
The target of series [11] is T2, 5-hydroxytryptamine receptor 2C (Rattus norvegicus, UniProt P08909).
T2 sequence (P08909 whole entry): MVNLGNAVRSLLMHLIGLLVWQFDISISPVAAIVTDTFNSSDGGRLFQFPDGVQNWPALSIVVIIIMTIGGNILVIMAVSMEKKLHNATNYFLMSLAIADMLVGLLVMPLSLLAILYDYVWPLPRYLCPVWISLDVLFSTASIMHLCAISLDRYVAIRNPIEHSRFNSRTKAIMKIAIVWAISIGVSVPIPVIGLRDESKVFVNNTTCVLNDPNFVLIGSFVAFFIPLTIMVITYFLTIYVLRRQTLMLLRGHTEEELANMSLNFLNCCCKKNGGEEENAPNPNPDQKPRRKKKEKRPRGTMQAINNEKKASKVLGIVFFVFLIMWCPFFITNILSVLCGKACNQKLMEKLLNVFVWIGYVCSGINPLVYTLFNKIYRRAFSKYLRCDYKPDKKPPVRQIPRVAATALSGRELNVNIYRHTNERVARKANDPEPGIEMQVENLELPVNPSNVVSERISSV
The series is described as follows: Displacement of [3H]mesulergine from 5HT2C receptor in rat brain cortex. Format: tissue-based.

The test system of series [12] is Mus musculus. The series is described as follows: Antipsychotic activity in po dosed mouse assessed as reversal of DOI-induced head twitch activity. Format: functional.
Series [13] deals with Histamine H1 receptor (Cavia porcellus, UniProt P31389). The series is described as follows: Displacement of [3H]mepyramine from histamine H1 receptor in guinea pig cerebellum.
The subject of series [14] is Mus musculus. The series is described as follows: Antipsychotic activity in po dosed mouse assessed as reversal of MK-801-induced hyperactivity. The series is classed as functional.
Series [15] concerns the target 5-hydroxytryptamine receptor 2A (Homo sapiens) (UniProt P28223). The series is described as follows: Agonist activity at […] receptor (unknown origin) at 10 uM relative to 5-HT.
In series [16] the target is D(2) dopamine receptor (Homo sapiens) (UniProt P14416). The series is described as follows: Agonist activity at dopamine D2 receptor (unknown origin) at 10 uM relative to dopamine.
Series [17] deals with T3, 5-hydroxytryptamine receptor 1A (Rattus norvegicus, UniProt P19327).
T3 sequence (P19327 whole entry): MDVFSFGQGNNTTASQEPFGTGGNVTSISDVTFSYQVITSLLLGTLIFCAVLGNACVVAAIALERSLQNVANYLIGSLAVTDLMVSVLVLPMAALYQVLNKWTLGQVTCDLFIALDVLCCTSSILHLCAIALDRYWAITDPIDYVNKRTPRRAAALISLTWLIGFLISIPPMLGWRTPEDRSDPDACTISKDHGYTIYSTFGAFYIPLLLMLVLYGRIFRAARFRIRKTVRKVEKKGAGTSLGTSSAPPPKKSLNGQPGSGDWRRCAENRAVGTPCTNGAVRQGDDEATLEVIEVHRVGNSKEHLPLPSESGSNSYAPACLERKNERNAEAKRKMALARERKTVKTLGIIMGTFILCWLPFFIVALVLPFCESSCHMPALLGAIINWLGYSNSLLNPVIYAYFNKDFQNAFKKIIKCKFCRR
The series is described as follows: Displacement of [3H]8-OH-DPAT from 5HT1A receptor in rat brain cortex. The series is classed as tissue-based.

Series [18] has as its system Mus musculus. The series is described as follows: Selectivity ratio of ED50 for po dosed mouse assessed as catalepsy to ED50 for po dosed mouse assessed as reversal of MK-801-induced hyperactivity.

Chain of D(2) dopamine receptor (P61169 whole entry): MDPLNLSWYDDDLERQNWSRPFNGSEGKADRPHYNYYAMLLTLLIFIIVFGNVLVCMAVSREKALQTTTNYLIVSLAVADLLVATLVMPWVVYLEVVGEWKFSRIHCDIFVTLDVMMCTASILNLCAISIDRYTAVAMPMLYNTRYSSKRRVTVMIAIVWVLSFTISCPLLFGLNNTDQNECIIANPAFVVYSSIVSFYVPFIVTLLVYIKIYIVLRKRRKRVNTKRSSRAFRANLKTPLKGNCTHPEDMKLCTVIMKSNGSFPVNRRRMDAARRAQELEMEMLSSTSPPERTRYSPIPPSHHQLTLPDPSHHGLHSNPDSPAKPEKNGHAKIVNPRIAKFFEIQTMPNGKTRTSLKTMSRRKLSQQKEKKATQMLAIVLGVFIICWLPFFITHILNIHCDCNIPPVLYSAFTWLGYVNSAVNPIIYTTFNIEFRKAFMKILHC
Chain of 5-hydroxytryptamine receptor 2A (Homo sapiens) (P28223 whole entry): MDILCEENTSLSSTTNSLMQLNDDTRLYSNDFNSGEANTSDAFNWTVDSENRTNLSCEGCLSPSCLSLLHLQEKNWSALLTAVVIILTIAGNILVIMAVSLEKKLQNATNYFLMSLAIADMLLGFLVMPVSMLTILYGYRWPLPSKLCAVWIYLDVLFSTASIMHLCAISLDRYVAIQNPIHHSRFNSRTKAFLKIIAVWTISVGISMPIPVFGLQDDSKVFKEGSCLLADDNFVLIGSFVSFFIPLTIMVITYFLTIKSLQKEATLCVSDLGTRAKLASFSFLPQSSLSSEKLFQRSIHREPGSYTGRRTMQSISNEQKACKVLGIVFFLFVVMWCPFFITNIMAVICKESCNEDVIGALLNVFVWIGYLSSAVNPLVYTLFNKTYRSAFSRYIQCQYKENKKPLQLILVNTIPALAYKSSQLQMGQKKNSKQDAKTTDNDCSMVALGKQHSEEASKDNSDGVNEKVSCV
Chain of D(2) dopamine receptor (Homo sapiens) (P14416 whole entry): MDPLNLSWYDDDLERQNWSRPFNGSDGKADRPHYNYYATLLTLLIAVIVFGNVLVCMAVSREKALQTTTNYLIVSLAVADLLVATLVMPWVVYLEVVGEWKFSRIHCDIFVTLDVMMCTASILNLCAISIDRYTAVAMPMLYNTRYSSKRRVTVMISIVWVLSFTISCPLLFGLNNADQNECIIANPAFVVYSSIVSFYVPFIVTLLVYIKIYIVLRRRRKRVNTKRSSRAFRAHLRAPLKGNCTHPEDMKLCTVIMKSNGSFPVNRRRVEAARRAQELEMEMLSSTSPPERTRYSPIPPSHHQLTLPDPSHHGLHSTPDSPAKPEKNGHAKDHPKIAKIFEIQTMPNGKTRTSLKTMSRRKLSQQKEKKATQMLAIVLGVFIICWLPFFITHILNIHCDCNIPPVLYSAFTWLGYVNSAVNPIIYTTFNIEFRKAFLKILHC
Chain of 5-hydroxytryptamine receptor 2A (P14842 whole entry): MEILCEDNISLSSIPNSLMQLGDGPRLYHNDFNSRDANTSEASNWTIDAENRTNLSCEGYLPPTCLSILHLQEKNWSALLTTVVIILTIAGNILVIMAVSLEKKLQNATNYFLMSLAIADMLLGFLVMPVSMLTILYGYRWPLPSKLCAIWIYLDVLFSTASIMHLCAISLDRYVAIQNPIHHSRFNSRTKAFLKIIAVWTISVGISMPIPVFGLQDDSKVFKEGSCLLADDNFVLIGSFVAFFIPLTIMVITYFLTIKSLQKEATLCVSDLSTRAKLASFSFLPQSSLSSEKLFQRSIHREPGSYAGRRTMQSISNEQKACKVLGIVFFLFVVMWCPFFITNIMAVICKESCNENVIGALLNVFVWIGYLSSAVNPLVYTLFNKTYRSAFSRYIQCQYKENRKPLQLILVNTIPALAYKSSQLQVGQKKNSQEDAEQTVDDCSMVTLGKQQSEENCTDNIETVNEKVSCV
Chain of Voltage-gated inwardly rectifying potassium channel KCNH2 (Q12809 whole entry): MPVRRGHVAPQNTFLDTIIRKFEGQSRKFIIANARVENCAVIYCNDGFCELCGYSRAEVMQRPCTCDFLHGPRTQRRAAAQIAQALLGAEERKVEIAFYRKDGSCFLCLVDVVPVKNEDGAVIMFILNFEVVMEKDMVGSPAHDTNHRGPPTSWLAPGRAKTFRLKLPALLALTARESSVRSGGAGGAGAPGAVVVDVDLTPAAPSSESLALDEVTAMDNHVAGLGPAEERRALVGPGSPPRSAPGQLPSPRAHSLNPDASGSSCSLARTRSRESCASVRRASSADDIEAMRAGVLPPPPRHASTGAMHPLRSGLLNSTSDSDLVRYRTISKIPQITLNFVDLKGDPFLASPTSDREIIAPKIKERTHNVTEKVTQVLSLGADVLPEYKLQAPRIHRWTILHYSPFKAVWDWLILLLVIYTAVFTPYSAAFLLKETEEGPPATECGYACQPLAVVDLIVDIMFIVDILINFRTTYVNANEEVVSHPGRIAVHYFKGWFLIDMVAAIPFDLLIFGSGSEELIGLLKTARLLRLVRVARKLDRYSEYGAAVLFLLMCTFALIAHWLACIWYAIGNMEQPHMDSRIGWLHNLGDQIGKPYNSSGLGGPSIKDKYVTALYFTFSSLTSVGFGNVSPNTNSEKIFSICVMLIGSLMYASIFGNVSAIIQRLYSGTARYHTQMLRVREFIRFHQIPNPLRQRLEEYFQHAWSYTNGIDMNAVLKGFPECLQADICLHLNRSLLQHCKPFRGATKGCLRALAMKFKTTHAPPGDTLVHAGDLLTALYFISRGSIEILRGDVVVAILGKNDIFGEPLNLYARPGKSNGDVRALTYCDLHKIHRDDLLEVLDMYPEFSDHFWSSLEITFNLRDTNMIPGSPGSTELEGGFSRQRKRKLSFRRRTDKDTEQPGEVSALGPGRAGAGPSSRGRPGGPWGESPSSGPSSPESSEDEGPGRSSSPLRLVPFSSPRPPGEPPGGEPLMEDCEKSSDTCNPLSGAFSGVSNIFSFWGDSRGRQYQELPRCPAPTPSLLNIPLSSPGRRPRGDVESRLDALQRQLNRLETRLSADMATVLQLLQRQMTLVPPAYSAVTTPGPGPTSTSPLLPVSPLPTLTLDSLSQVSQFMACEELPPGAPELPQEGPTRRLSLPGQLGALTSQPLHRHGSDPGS
Chain of Histamine H1 receptor (P31389 whole entry): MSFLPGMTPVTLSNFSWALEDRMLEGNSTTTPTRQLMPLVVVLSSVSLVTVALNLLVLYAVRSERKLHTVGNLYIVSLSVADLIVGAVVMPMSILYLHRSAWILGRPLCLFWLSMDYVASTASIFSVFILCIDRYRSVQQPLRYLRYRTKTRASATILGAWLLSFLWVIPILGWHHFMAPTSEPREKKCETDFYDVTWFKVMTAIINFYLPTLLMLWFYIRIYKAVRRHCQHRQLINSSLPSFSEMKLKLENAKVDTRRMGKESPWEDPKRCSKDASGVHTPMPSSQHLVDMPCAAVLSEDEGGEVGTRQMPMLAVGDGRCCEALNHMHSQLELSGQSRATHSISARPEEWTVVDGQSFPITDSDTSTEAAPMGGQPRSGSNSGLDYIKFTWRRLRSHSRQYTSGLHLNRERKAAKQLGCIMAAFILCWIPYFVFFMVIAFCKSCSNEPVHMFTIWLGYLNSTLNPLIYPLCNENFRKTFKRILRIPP
Chain of D(3) dopamine receptor (Homo sapiens) (P35462 whole entry): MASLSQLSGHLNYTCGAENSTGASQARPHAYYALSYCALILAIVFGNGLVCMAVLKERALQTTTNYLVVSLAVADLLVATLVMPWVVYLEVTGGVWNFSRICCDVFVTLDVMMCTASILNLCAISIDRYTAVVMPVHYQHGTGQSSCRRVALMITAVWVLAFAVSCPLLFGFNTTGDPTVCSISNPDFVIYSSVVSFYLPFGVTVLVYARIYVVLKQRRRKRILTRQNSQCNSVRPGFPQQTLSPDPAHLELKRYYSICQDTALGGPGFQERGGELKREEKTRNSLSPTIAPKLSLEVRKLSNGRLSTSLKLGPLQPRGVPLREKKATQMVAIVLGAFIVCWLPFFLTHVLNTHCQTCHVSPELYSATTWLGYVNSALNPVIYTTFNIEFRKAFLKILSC

The inhibition is how much of the control response was suppressed. Higher therefore signals strong suppression. The term Ki denotes a measure of affinity in units of concentration, obtained from inhibition or displacement. In general, ED50 refers to the dose that gives a 50% effect, or the effect in half of the subjects. The IC50 is the concentration that gives 50% inhibition. Regarding `O=[N+]([O-])c1ccc(S(=O)(=O)N2CCC(CN3CCC(c4noc5cc(F)ccc45)CC3)CC2)cc1`, the entries for the “Ratio ED50” value in series [1] and in series [18] were 108.8 and 61.3, respectively. For the same compound, the Activity in series [2] came out at 8.2%; in series [10], 3.7%; in series [15] it was 6.8%; in series [16], 5.9%. Also, the inhibition in series [3] and in [9] was 100% throughout. The Ki in series [4] is 0.79 nM; in series [6], 8.7 nM; in series [11], 998 nM; in [13], 2850 nM; in [17] it was 16.9 nM. Further, the ED50 in series [5] was found to be 0.4 mg/kg; in series [8] it was 43.53 mg/kg; in series [12] it was 0.57 mg/kg; in series [14], 0.71 mg/kg. Also, in [7], the 50% inhibitory concentration (IC50) stood at 3810 nM.

With `O=S(=O)(c1ccc(C(F)(F)F)cc1)N1CCC(CN2CCC(c3noc4cc(F)ccc34)CC2)CC1`, the Ki in series [4] was determined as 15.7 nM; in [6], 32.6 nM; in series [11], 137 nM; in series [13], 43.6 nM; in series [17], 21.9 nM. For the same compound, 1390 nM corresponded to half-maximal inhibition in series [7] (IC50).
